Consider two substances from patent US20250304623A1, “PEPTIDES FOR INTRACELLULAR DELIVERY” (UNIVERSIDADE DE SANTIAGO DE COMPOSTELA, priority 2022, published 2025).

Common to all, as to type: cell-based
The test system of one assay is ARPE19 cells. In words: RLuc pDNA delivery, robotic library screening, ARPE19.
Assay [1] deals with HepG2 cells expressing EGFP. The assay can be described thus: Cas9-RNP delivery against EGFP (gene editing, plate reader), HepG2. The method, boiled down: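 Gene editing in EGFP-expressing HepG2 cells was estimated as the percentage drop in GFP fluorescence, measured in triplicate on a plate reader 72 h after Cas9-RNP delivery with amphiphiles. The RNP was made from annealed crRNA/tracrRNA plus 4 μM Cas9 and complexed with amphiphile before a 4 h exposure. Background from untreated control cells was subtracted.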

The subject of the next assay is A549 cells. In words: RLuc pDNA delivery, robotic library screening, A549. In short, it runs like this:
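A549 cells in DMEM+10% FBS were washed twice with PBS and exposed for 4 h to amphiphile/RLuc pDNA complexes prepared from DMSO stocks diluted in DMEM. After medium replacement and 72 hours, cells in HBSS were incubated at 37° C. for 30 minutes, basal then total luminescence measured after 5 μM coelenterazine h; background from untransfected cells was subtracted.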

*: point of attachment. NHNH2 = NN*

Turning to “Ac-RRLK*RLLRRLK*RL-NH2 (Ac-RRLK(NHNH2)RLLRRLK(NHNH2)RL-NH2; not fully specified; printed as Ac-RRLK*RLLRRLK*RL-NH2; also: K*4,K*11: native or modified lysine (ε-amide to a linker)) [Peptide 13.2]”, the “mean luminescent intensity (RLuc pDNA)” value is 1077 RLU with ARPE19 cells (Oleyl, 5 μM); 499 RLU with ARPE19 cells (Oleyl, 10 μM); 641 RLU with ARPE19 cells (Oleyl, 15 μM); 2368 RLU in the assay on A549 cells (Oleyl, 5 μM); 1152 RLU in the assay on A549 cells (Oleyl, 10 μM); 1367 RLU in the assay with A549 cells (Oleyl, 15 μM). Moreover, the “percentage of gene editing, GFP fluorescence intensity decrease (% of reduction)” value is given as −36% in assay [1] (Dodecanal, 5 μM); −41% in assay [1] (Dodecanal, 10 μM); 9% in assay [1] (Dodecanal, 15 μM); −21% in assay [1] (Oleyl, 10 μM); −33% in assay [1] (Oleyl, 15 μM).
Take “Ac-RRLK*RLLRRLK*RLK*RRL-NH2 (Ac-RRLK(NHNH2)RLLRRLK(NHNH2)RLK(NHNH2)RRL-NH2; not fully specified; printed as Ac-RRLK*RLLRRLK*RLK*RRL-NH2; also: K*4,K*11,K*14: native or modified lysine (ε-amide to a linker)) [Peptide 17.3]”: the “mean luminescent intensity (RLuc pDNA)” value was 411 RLU in the assay on ARPE19 cells (Dodecanal, 5 μM); 617 RLU in the assay on ARPE19 cells (Dodecanal, 10 μM); 1217 RLU in the assay on ARPE19 cells (Dodecanal, 15 μM); −148 RLU with ARPE19 cells (Myristoleyl, 5 μM); −514 RLU with ARPE19 cells (Myristoleyl, 10 μM); −339 RLU in the assay with ARPE19 cells (Myristoleyl, 15 μM). The “mean luminescent intensity (RLuc pDNA)” value with ARPE19 cells (Oleyl, 10 μM) amounted to 822 RLU; with ARPE19 cells (Oleyl, 15 μM) it was 1043 RLU; with ARPE19 cells (Palmitoleyl, 5 μM), 7062 RLU; with ARPE19 cells (Palmitoleyl, 15 μM), 413 RLU; in the assay with ARPE19 cells (Petroselinyl, 5 μM), 5399 RLU; in the assay with ARPE19 cells (Petroselinyl, 15 μM) it was 398 RLU. For the same substance, the “mean luminescent intensity (RLuc pDNA)” value amounted to 1381 RLU with A549 cells (Dodecanal, 10 μM); 1660 RLU with A549 cells (Dodecanal, 15 μM); 1545 RLU in the assay with A549 cells (Myristoleyl, 10 μM); 2581 RLU with A549 cells (Myristoleyl, 15 μM); 1201 RLU in the assay with A549 cells (Oleyl, 10 μM); 1552 RLU in the assay on A549 cells (Oleyl, 15 μM). Moreover, the “mean luminescent intensity (RLuc pDNA)” value in the assay on A549 cells (Palmitoleyl, 5 μM) was 2518 RLU; in the assay with A549 cells (Palmitoleyl, 15 μM), 2585 RLU; in the assay with A549 cells (Petroselinyl, 15 μM) it was 2614 RLU. The “percentage of gene editing, GFP fluorescence intensity decrease (% of reduction)” value was 6% in assay [1] (Myristoleyl, 5 μM); 38% in assay [1] (Myristoleyl, 10 μM); −2% in assay [1] (Palmitoleyl, 5 μM); 31% in assay [1] (Palmitoleyl, 10 μM); 31% in assay [1] (Palmitoleyl, 15 μM); −2% in assay [1] (Petroselinyl, 5 μM). Also, the “percentage of gene editing, GFP fluorescence intensity decrease (% of reduction)” value in assay [1] (Petroselinyl, 10 μM) is recorded as 39%; in assay [1] (Petroselinyl, 15 μM) it was 35%.
